The text below walks through data of patent publication US20080139489A1, “USE OF KETOLIDES FOR PREVENTING ARTERIAL THROMBOTIC COMPLICATIONS RELATED TO ATHEROSCLEROSIS” (Aventis Pharma S.A., priority 1997, published 2008).

The assay concerns rabbit platelets. The assay is described as follows: In vitro platelet aggregation (turbidimetry, platelet-rich plasma). Particulars: for activity on this in vitro platelet aggregation test: result in words, concentration and aggregating agent not stated. The assay is classed as cell-based. On the procedure: The platelet aggregation is measured by the turbidimetry method inspired by Born, by detecting the optical transmission through a platelet-rich plasma (PRP) to which and aggregating agent has been added. When the platelets aggregate, the plasma becomes clear and the optical transmission increases. Blood is taken (3 tubes per rabbit) by cardiac puncture from a rabbit into tubes containing sodium citrate. To obtain the platelet-rich plasma (PRP), the tubes are centrifuged at 160 g for 10 minutes. The supernatants are collected (PRP) and the pellet is re-centrifuged at 2000 g for 15 minutes to obtain the platelet-poor plasma (PPP). By dilution with the PPP, the PRP is adjusted to a concentration of 300,000 platelets per mm^3±10%. The counting is carried out using a Coulter ZM counter. Tubes containing 320 μl of PRP are incubated at +37° C. for 30 minutes in pre-incubation wells. The aggregometer is calibrated with the PPP for an optical transmission of 100% corresponding to a complete aggregation, and with the PRP obtained from the same rabbit for an optical transmission of 0% corresponding to the absence of aggregation. The test product P is added in a volume of 40 μl. After incubation for 2 minutes, the aggregating agent (10 μM ADP, 0.2 mM sodium arachidonate or collagen […]) is added in a volume of 40 μl. The aggregation begins immediately and can be seen on the printer. On the plot obtained, the height of the aggregation curve is measured in cm from the baseline before addition of the aggregating agent, and then converted into mVolts (=1/OD) using the formula 10 mV=2.5 cm.

Consider `CC(=O)Oc1ccccc1C(=O)O` [Aspirin, reference compound], for which the inhibition at 50 µM (Oryctolagus cuniculus, Platelet, product concentration 5 × 10^−5 M, rabbit platelets, arachidonic acid 0.2 mM, read-out: % of inhibition of the aggregation induced by arachidonic acid) worked out at 85%. For the same molecule, the inhibition at 100 µM (Oryctolagus cuniculus, Platelet, product concentration 10^−4 M, rabbit platelets, arachidonic acid 0.2 mM, read-out: % of inhibition of the aggregation induced by arachidonic acid) was determined as 100%. For the setting “Oryctolagus cuniculus, Platelet, product concentration 10^−5 M, rabbit platelets, arachidonic acid 0.2 mM, read-out: % of inhibition of the aggregation induced by arachidonic acid”, the inhibition at 10 µM came out at 13%. Moreover, the inhibition at 1 µM (Oryctolagus cuniculus, Platelet, product concentration 10^−6 M, rabbit platelets, arachidonic acid 0.2 mM, read-out: % of inhibition of the aggregation induced by arachidonic acid) came out at 8%.

Regarding `CCC1OC(=O)C(C)C(=O)C(C)C(OC2OC(C)CC(N(C)C)C2O)C(C)(OC)CC(C)C(=O)C(C)C2N(CCCCn3cnc(-c4cccnc4)n3)C(=O)OC12C` (centres unmarked) [Product P1], the “activity on this in vitro platelet aggregation test” value (from here on “activity on this”) is given as “good activity”.

On to `CCC1OC(=O)C(C)(F)C(=O)C(C)C(OC2OC(C)CC(N(C)C)C2O)C(C)(OC)CC(C)C(=O)C(C)C2N(CCCCn3cnc(-c4cccnc4)c3)C(=O)OC12C` [Product P2, 11,12-dideoxy-3-de((2,6-dideoxy-3-C-methyl-3-O-methyl-alpha-L-ribohexopyranosyl)oxy)-2-fluoro-6-O-methyl-3-oxo-12,11-(oxycarbonyl((4-(4-(3-pyridyl)-1H-imidazol-1-yl)butyl)-imino))erythromycin], for which the “activity on this” value is reported as “good activity”.

Take `CCC1OC(=O)C(C)C(=O)C(C)C(OC2OC(C)CC(N(C)C)C2O)C(C)(OC)CC(C)C(=O)C(C)C2N(CCCCn3cnc(-c4cccnc4)c3)C(=O)OC12C` [Product P3, 11,12-dideoxy-3-de((2,6-dideoxy-3-C-methyl-3-O-methyl-alpha-L-ribohexopyranosyl)oxy)-6-O-methyl-3-oxo-12,11-(oxycarbonyl((4-(4-(3-pyridyl)-1H-imidazol-1-yl)butyl)imino))erythromycin]: the “activity on this” value is recorded as “good activity”.

As for `CC[C@H]1OC(=O)[C@H](C)C(=O)[C@H](C)[C@@H](O[C@@H]2O[C@H](C)C[C@H](N(C)C)[C@H]2O)[C@](C)(OC)C[C@@H](C)C(=O)[C@H](C)[C@H]2N(COCCn3cnc(-c4cccnc4)c3)C(=O)O[C@]12C` [Product P], the “% of inhibition of the aggregation induced by arachidonic acid” value reads like this: (product concentration 10^−4 M, rabbit platelets, arachidonic acid 0.2 mM) 90%; (product concentration 10^−5 M, rabbit platelets, arachidonic acid 0.2 mM) 73%; (product concentration 10^−6 M, rabbit platelets, arachidonic acid 0.2 mM) 42%; (product concentration 10^−7 M, rabbit platelets, arachidonic acid 0.2 mM) 7%.
